Where a name gives a salt, the structure may show the parent alone. Read-outs that look alike come from different tables or passages of the source.
How the values were obtained:
gastric ulcer [1] = assay: anti-ulcer test against indomethacin-induced gastric ulcer; format: in vivo, Wistar/ST male rats; conditions: 200 mg/kg oral; for Length of ulcer: 30 minutes before indomethacin (50 mg/kg s.c.), control 47.75 ± 6.08; for Suppression rate: indomethacin ulcer, vs. control
Experimental: Ulcer was induced in Wistar/ST male rats having a weight of about 200 g (6 week-old) by indomethacin as a gastric ulcer inducing agent, and the anti-ulcer effects of the test samples were examined in the following six groups to which test samples were administered.
(§1) Each group comprises six rats.
______________________________________
(§2) Group 1: (control) physiological saline
Group 2: (comparative) cetraxate hydrochloride
Group 3: (the present invention) garcinol
Group 4: (the present invention) garcinol
Group 5: (the present invention) garcinol
Group 6: (the present invention) isogarcinol
In this connection, physiological saline containing 1% sodium carboxymethylcellulose was used as the control, and cetraxate hydrochloride (trade name "Neuer®S", Daiichi Pharmaceuticals Co., Ltd.) which is clinically used as an anti-ulcer agent was used as the comparative sample. The cetraxate hydrochloride insoluble in water was ground into fine powder with a mortar and a pestle and used as a suspension in a 1% sodium carboxymethylcellulose solution. Also, garcinol and isogarcinol in the form of fine powder were used as the suspensions in a 1% sodium carboxymethylcellulose solution in the concentrations which are the doses in the groups. In this connection, garcinol and isogarcinol used in the section of the present invention were those obtained in Referential Examples 1 and 2, respectively.
Experiment was carried out according to the method described by Yamahara et al. (see […] ZASSHI, 114, 401, 1994) which had been slightly modified. That is to say, indomethacin (50 mg/kg) was suspended in 1% sodium carboxymethylcellulose containing 0.1% Tween 20 (Sigma) and injected subcutaneously into the back of 24 hour fasted rats in an amount of 1 ml/rat. The samples in the six sections were orally administered at 30 minutes before administration of indomethacin. After 7 hours from the administration of indomethacin, rats were bleeded to death under anesthetization with nembutal, and stomach was isolated. A phosphate buffer (10 ml) containing 10% formalin was injected into the stomach, which was cut open after 10 minutes, and the length of lesion caused in the glandular stomach portion was defined as the lesion index, which was measured in the mm unit to evaluate the anti-ulcer effect. The suppression rate (%) in Table 1 means the value in which the difference of the length (mm) of ulcer in each group subtracted from the average length, 47.75 (mm) of ulcer in the control was divided with the average length, 47.75 (mm) of ulcer in the control. The larger the value, the stronger the anti-ulcer activity.

gastric ulcer [2] = assay: anti-ulcer test against stress ulcer (restrained immersion into water); format: in vivo, Wistar/ST male rats; conditions: 200 mg/kg oral
Experimental: Gastric ulcer was induced in Wistar/ST male rats having a weight of about 200 g (6 w) by the stress of restrained immersion into water and the anti-ulcer effects of the test samples were examined in the following groups to which test samples were administered.
as §1, §2
Group 2: (comparative) cetraxate hydrochloride 200 mg/kg
Group 3: (the present invention) garcinol 200 mg/kg
In this connection, the test samples in the control, comparative group and the present invention group were prepared in the same manner as in Experimental Example 9.
Rats having fasted for 24 hours were locked up in a restrained dipping cage after 30 minutes from the oral administration of respective test samples. Next, rats were stressed by dipping the cage into water at 23° C. for 7 hours, and bleeded to death under anesthetization with nembutal, and stomach was isolated. A phosphate buffer (10 ml) containing 10% formalin was injected into the stomach, which was cut open after 10 minutes, and the length of lesion caused in the glandular stomach portion was defined as the lesion index, which was measured in the mm unit to evaluate the anti-ulcer effect.
The method for calculating the suppression rate (%) and the meaning of it has been described in Experimental Example 9.

bovine serum albumin [3] = assay: suppression of generation of reactive oxygen species in the presence of metal ion (oxidation of bovine serum albumin in Fenton reaction); format: biochemical; conditions: 1 mM test substance, 10 μM copper ion, 20 mM hydrogen peroxide, 4 mg/ml BSA
Experimental: The activity for suppressing the generation of reactive oxygen species in the presence of metal ion was evaluated by measuring the effect for suppressing the oxidation of bovine serum albumin by hydroxyl radical in the Fenton reaction system. That is to say, hydroxyl radical was first produced by divalent copper ion and hydrogen peroxide (Fenton reaction). Bovine serum albumin was oxidized by the hydroxyl radical, and thus carbonyl was produced. The carbonyl was reacted with 2,4-dinitrophenylhydrazine, and determined by measuring the absorbance at 365 nm. […] The ratio of decreases of absorbance was expressed as the activity for suppressing the generation of reactive oxygen species in the presence of metal ion.

[4] = superoxide scavenging activity test with phenazine methosulfate; conditions: 40 μM final concentration
Experimental: The active oxygen scavenging activity was evaluated according to the superoxide scavenging activity test with phenazine methosulfate. That is to say, dihydronicotinamide adenine dinucleotide and phenazine methosulfate were first reacted in a buffer at a physiological hydrogen ion concentration. The absorbance at 560 nm of a formazan pigment produced by the reduction of Nitro Blue Tetrazolium with superoxide was measured. […] The ratio of decreases of absorbance was expressed as superoxide scavenging activity.

bovine lens α-crystallin = assay: α-crystallin crosslinking polymerization inhibiting activity; format: biochemical; conditions: 0.1 mM, 500 mM D-fructose, pH 7.4, 37° C., 2 weeks
Experimental: The effect of garcinol on bovine lens α-crystallin crosslinking polymerization reaction was evaluated. […] The gel after electrophoresis was stained with Coomassie Brilliant Blue, and the protein amounts in bands were determined with a densitometer. The crosslinking polymerization inhibiting activity of the protein was calculated from the following equation.
Protein polymerization inhibiting activity (%)=(Ps-Pc)/Pc×100
polymerization degree of protein=band density of polymerized protein/band density of monomer protein;
Ps: polymerization degree of protein in the presence of test substance;
Pc: polymerization degree of protein in the absence of test substance.

[5] = anti-oxidation activity in a lipid oxidation process promoted by a metal ion (copper sulfate); conditions: 5 μM copper sulfate added; lesser ratio = stronger
Experimental: The anti-oxidation activities was evaluated according to the method by A. Ben Aziz et al. (see Phytochemistry, 10, 1445, 1971). That is to say, an emulsion of linoleic acid and β-carotene was first prepared with Tween 20 (Sigma) and adjusted to pH 7.0 with 0.1 M trishydroxyaminomethane-hydrochloride. To the emulsion was added 0.0005% of a substance to be tested, and the mixture was reacted at 25° C.
During the reaction, the color degradation of β-carotene in association with the autoxidation of linoleic acid was measured with the passage of time as the decreased value of the optical density at 460 nm with a spectrophotometer.
The substance to be tested was a garcinal preparation obtained in Referential Example 1, and vitamin E and (+)-catechin were used as Comparative Example. The antioxidant activity was measured as a ratio of the decreasing rate of absorbance in the presence of the substance to be tested to the decreasing rate of absorbance in the absence of the antioxidant. That is, the substance is judged to have an antioxidant activity when the ratio is less than 1, and thus it is predicated that the lesser the ratio, the stronger the antioxidant activity.
The oxidation process of linoleic acid in Experimental Example 1 is promoted by a metal ion. If 5 μM of copper sulfate is added to the reaction system, the color-degradation rate of β-carotene is promoted by about 30%. When garcinol was added to this system, the ratio of the decreasing rate of absorbance was 0.57. In this connection, it was 0.13 for vitamin E and 0.84 for (+)-catechin.

[6] = DPPH radical scavenging activity; conditions: 0.0002% test substance, 1.0×10^-4 M DPPH, 25° C., 1 hour, 528 nm
Experimental: The 1,1-diphenyl-2-picrylhydrazyl (DPPH) radical scavenging activity was tested with a garcinol preparation prepared in the similar manner as described in Referential Example 1. That is to say, a 1.0×10^-4 M solution (50% ethanolic) of DPPH was prepared, 0.0002% of a test substance was added, and the decrease of optical density at 528 nm was measured after 1 hour reaction at 25° C. for one hour. In this case, ascorbic acid was used as a standard, the decrease of the absorbance was expressed as 100, and the radical scavenging activity of the test substance was measured as equivalences to ascorbic acid. In this connection, a garcinol preparaion used as the test substance, and vitamin E and (+)-catechin were used as references.

[7] = anti-oxidation activity (linoleic acid/β-carotene emulsion, autoxidation); conditions: 0.0005% test substance, pH 7.0, 25° C., 460 nm; lesser ratio = stronger
Experimental: The anti-oxidation activities was evaluated according to the method by A. Ben Aziz et al. […] That is to say, an emulsion of linoleic acid and β-carotene was first prepared with Tween 20 (Sigma) and adjusted to pH 7.0 with 0.1 M trishydroxyaminomethane-hydrochloride. […] During the reaction, the color degradation of β-carotene in association with the autoxidation of linoleic acid was measured with the passage of time as the decreased value of the optical density at 460 nm with a spectrophotometer. […] The antioxidant activity was measured as a ratio of the decreasing rate of absorbance in the presence of the substance to be tested to the decreasing rate of absorbance in the absence of the antioxidant.

bovine serum albumin [8] = conditions: bovine serum albumin/d-fructose, 120 h, 1000 µM, pH 7.4
Experimental: (§3) A solution containing bovine serum albumin (4 mg/ml), 500 mM D-fructose and 200 mM potassium phosphate buffer (pH 7.4) was aseptically prepared. To the solution was added 0.1 mM of a test substance. The substance insoluble in water was added as an ethanolic solution so as the final concentration of ethanol to be less than 1%. After incubation of these solutions at 37° C. for 5 days, equivalent volume of a cold 10% trichloroacetic acid solution was added to the solution to precipitate proteins. The precipitate was collected by centrifugation, further washed with a cold 5% trichloroacetic acid solution, and dissolved again in a 200 mM potassium phosphate buffer. The solution was diluted appropriately with distilled water, and the fluorescence intensity at 425 nm was measured with an excitation wave length at 350 nm in a fluorescence spectrophotometer (Shimadzu Seisakusho, Ltd.). The inhibition activity was calculated from the following equation.
(§4) Inhibition activity (%)=(Fc-Fs)/(Fc-Fb)×100
(§5) Fs: fluorescence intensity in the presence of test substance;
(§6) Fc: fluorescence intensity in the absence of test substance;
(§7) Fb: fluorescence intensity in the absence of fructose.

bovine serum albumin [9] = assay: Maillard reaction inhibiting activity (bovine serum albumin/D-fructose)
Experimental: as §3, §4, §5, §6, §7

CC(C)=CC[C@H]1C[C@@]23C[C@@H](CC=C(C)C)C(C)(C)[C@@](CC=C(C)C)(C(=O)C(C(=O)c4ccc(O)c(O)c4)=C2OC1(C)C)C3=O [isogarcinol]
Length of ulcer (gastric ulcer [1]): 22.40 ± 15.3 mm | Suppression rate (gastric ulcer [1]): 53.1%

NC[C@H]1CC[C@H](C(=O)Oc2ccc(CCC(=O)O)cc2)CC1 [cetraxate hydrochloride, reference compound]
Length of ulcer (gastric ulcer [2]; restrained water immersion 23° C., 7 hours, control 44.20 ± 18.10): 18.80 ± 6.02 mm | Suppression rate (gastric ulcer [2]; stress ulcer, vs. control): 57.5% | Length of ulcer (gastric ulcer [1]): 14.30 ± 10.9 mm | Suppression rate (gastric ulcer [1]): 70.1%

O=c1c(O)c(-c2ccc(O)c(O)c2)oc2cc(O)cc(O)c12 [quercetin]
oxidation of bovine serum albumin, result in words (bovine serum albumin [3]): promoted oxidation rather extensively | superoxide scavenging rate [4]: 63% | protein polymerization inhibiting activity (bovine lens α-crystallin): 33%

Oc1cc(O)c2c(c1)O[C@H](c1ccc(O)c(O)c1)[C@@H](O)C2 [(+)-catechin]
oxidation of bovine serum albumin, result in words (bovine serum albumin [3]): promoted oxidation rather extensively | ratio of the decreasing rate of absorbance (antioxidant activity with metal ion) [5]: 0.84 | DPPH radical scavenging activity (equivalences to ascorbic acid = 100) [6]: 73 | antioxidant activity (ratio of the decreasing rate of absorbance with to without test substance) [7]: 0.18 | superoxide scavenging rate [4]: 25%

CC(C)(S)[C@@H](N)C(=O)O [D-penicillamine]
Maillard reaction inhibition activity (bovine serum albumin [8]): 27%

vitamin E
ratio of the decreasing rate of absorbance (antioxidant activity with metal ion) [5]: 0.13 | DPPH radical scavenging activity (equivalences to ascorbic acid = 100) [6]: 25 | antioxidant activity (ratio of the decreasing rate of absorbance with to without test substance) [7]: 0.10

N=C(N)NN [Aminoguanidine]
Maillard reaction inhibition activity, result in words (bovine serum albumin [9]; 0.1 mM, 37° C., 5 days, pH 7.4): no activity | Maillard reaction inhibition activity (bovine serum albumin [9]; 1 mM, 7200 min): no more than 43%

— US5972357A, “Healthy foods and cosmetics” (Kikkoman Corporation, priority 1996, dated 1999)
